How the values were obtained:
Type in all cases: in vivo
[1] = system: Scirpus juncoides; assay: Test Example 1: herbicidal activity, application before weed generation in submerged conditions (symbol B); conditions: application herbicide amount 320 g/ha
Method in brief: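 Greenhouse growth at 25–30 °C lasted 3 weeks after treatment, when each weed was graded 0–5 by herbicidal ratio. Treatment was a diluted emulsion applied to the water surface of 4 cm-submerged alluvial soil on the sowing day.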

[2] = system: Echinochloa crus-galli var. crus-galli; assay: Test Example 4: herbicidal effect by soil treatment (symbol H); conditions: application herbicide amount 320 g/ha
Method in brief: (§1)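 Seeds were sown in sterilized diluvial soil, covered with about 1.5 cm of soil, and the soil surface was sprayed with a water-diluted emulsion of the compound at a predetermined rate. Plants grew in a greenhouse at 25° C. to 30° C.; effects were scored visually 3 weeks after application.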

[3] = system: Abutilon theophrasti; assay: Test Example 4: herbicidal effect by soil treatment (symbol M); conditions: application herbicide amount 320 g/ha
Method in brief: as §1

[4] = system: Chenopodium album; assay: Test Example 4: herbicidal effect by soil treatment (symbol O); conditions: application herbicide amount 320 g/ha
Method in brief: as §1

[5] = system: Galium spurium; assay: Test Example 4: herbicidal effect by soil treatment (symbol Q); conditions: application herbicide amount 320 g/ha
Method in brief: as §1

[6] = system: Lolium multiflorum Lam.; assay: Test Example 5: herbicidal effect by foliage application, plastic box (symbol K); conditions: 320 g/ha, 3 weeks after application
Method in brief: (§2)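 Leaf-applied emulsion, water-diluted to a preset herbicide dose, on two-week-old seedlings raised in a 25° C. to 30° C. greenhouse; injury rated at 3 weeks using earlier criteria.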

[7] = system: Apera spica-venti; assay: Test Example 5: herbicidal effect by foliage application, plastic box (symbol L); conditions: 320 g/ha, 3 weeks after application
Method in brief: as §2

[8] = system: Amaranthus retroflexus; assay: Test Example 5: herbicidal effect by foliage application, plastic box (symbol N); conditions: 320 g/ha, 3 weeks after application
Method in brief: as §2

[9] = system: rice plant; assay: Test Example 5: effect on crop by foliage application, plastic box (symbol b); conditions: 320 g/ha, 3 weeks after application
Method in brief: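 Seeds were sown in spots in sterilized diluvial soil held in a plastic box 21 cm × 13 cm × 7 cm deep, covered with about 1.5 cm of soil, and grown in a greenhouse at 25° C. to 30° C.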

Row | Compound | Herbicidal effect grade, B: Scirpus juncoides [1] | H (Echinochloa crus-galli var. crus-galli) herbicidal effect grade [2] | M (Abutilon theophrasti) herbicidal effect grade [3] | O (Chenopodium album) herbicidal effect grade [4] | Q (Galium spurium) herbicidal effect grade [5] | K: Lolium multiflorum Lam., herbicidal effect grade [6] | L: Apera spica-venti, herbicidal effect grade [7] | N: Amaranthus retroflexus, herbicidal effect grade [8] | b: directly sowed rice plant, effect on crop grade [9] | Herbicidal effect grade, H: Echinochloa crus-galli var. crus-galli [2] | Herbicidal effect grade, M: Abutilon theophrasti [3] | Herbicidal effect grade, O: Chenopodium album [4] | Herbicidal effect grade, Q: Galium spurium [5] | K: Lolium multiflorum Lam., herbicidal effect (criteria of Test Example 1) [6] | L: Apera spica-venti, herbicidal effect (criteria of Test Example 1) [7] | N: Amaranthus retroflexus, herbicidal effect (criteria of Test Example 1) [8] | b: directly sowed rice plant, effect on crop (criteria of Test Example 1) [9]
1 | CON=C(C)CC1CC(OC(=O)C(C)(C)OC(C)=O)=C(c2c(C)cc(C)cc2C)C1=O (stereo not drawn) [1-034] | 4 (Herbicidal ratio of 70% or higher and lower than 90%) | 5 (Herbicidal ratio of 90% or more (almost completely withered)) | 5 (Herbicidal ratio of 90% or more (almost completely withered)) | 5 (Herbicidal ratio of 90% or more (almost completely withered)) | 4 (Herbicidal ratio of 70% or higher and lower than 90%) | 5 (Herbicidal ratio of 90% or more (almost completely withered)) | 5 (Herbicidal ratio of 90% or more (almost completely withered)) | 3 (Herbicidal ratio of 40% or higher and lower than 70%) | 5 (Herbicidal ratio of 90% or more (almost completely withered)) | – | – | – | – | – | – | – | –
2 | CON=C(CC1CC(O)=C(c2c(C)cc(C)cc2C)C1=O)c1ccccc1 (stereo not drawn) [1-047] | 0 (Herbicidal ratio of 5% or lower (almost no effect)) | 3 (Herbicidal ratio of 40% or higher and lower than 70%) | 0 (Herbicidal ratio of 5% or lower (almost no effect)) | 0 (Herbicidal ratio of 5% or lower (almost no effect)) | 0 (Herbicidal ratio of 5% or lower (almost no effect)) | 4 (Herbicidal ratio of 70% or higher and lower than 90%) | 1 (Herbicidal ratio of 5% or higher and lower than 20%) | 0 (Herbicidal ratio of 5% or lower (almost no effect)) | 4 (Herbicidal ratio of 70% or higher and lower than 90%) | – | – | – | – | – | – | – | –
3 | CC(=O)CC1CC(O)=C(c2c(C)cc(-c3ncccn3)cc2C)C1=O (stereo not drawn) [7-017] | – | – | – | – | – | – | – | – | – | 0 (Herbicidal ratio of 5% or lower (almost no effect)) | 0 (Herbicidal ratio of 5% or lower (almost no effect)) | 0 (Herbicidal ratio of 5% or lower (almost no effect)) | 0 (Herbicidal ratio of 5% or lower (almost no effect)) | 3 (Herbicidal ratio of 40% or higher and lower than 70%) | 3 (Herbicidal ratio of 40% or higher and lower than 70%) | 0 (Herbicidal ratio of 5% or lower (almost no effect)) | 5 (Herbicidal ratio of 90% or more (almost completely withered))
4 | CON=C(CC1CC(O)=C(c2c(C)cc(-n3cc(Cl)cn3)cc2C)C1=O)C(C)C (stereo not drawn) [9-004] | 2 (Herbicidal ratio of 20% or higher and lower than 40%) | – | – | – | – | 5 (Herbicidal ratio of 90% or more (almost completely withered)) | 4 (Herbicidal ratio of 70% or higher and lower than 90%) | – | – | 5 (Herbicidal ratio of 90% or more (almost completely withered)) | 0 (Herbicidal ratio of 5% or lower (almost no effect)) | 0 (Herbicidal ratio of 5% or lower (almost no effect)) | 0 (Herbicidal ratio of 5% or lower (almost no effect)) | – | – | – | –

Source: patent publication US11000033B2, “Ketone or oxime compound, and herbicide” (NISSAN CHEMICAL CORPORATION, priority 2014, dated 2021)
